Literature values in patent US8580861B2, “Chemical composition for skin care formulations” (Pibed Limited, priority 2008, dated 2013).
Like-named read-outs stand apart in the source and are kept apart here.

What was measured:
Staphylococcus aureus = conditions: low concentrations (0.5 to 2 mM), disk diffusion
Lactobacillus fermentum = conditions: flow cytometry
Microsporum gypseum [1] = conditions: M. gypseum
Microsporum gypseum [2] = conditions: 10% in Vaseline petroleum jelly, topical, daily for 3 weeks; for histopathologic examination of skin tissues: versus positive control

CC(C)=CCC/C(C)=C/CC1CCCC1=O (centres unmarked) [apritone]
susceptibility to ciprofloxacin, clindamycin, erythromycin, gentamicin, tetracycline, and vancomycin (Staphylococcus aureus): enhanced the susceptibility of Staphylococcus aureus
intracellular accumulation of ethidium bromide by live cells (Lactobacillus fermentum): promoted the intracellular accumulation

CC(C)=CCC[C@](C)(O)C1CC=C(C)CC1 (some centres unmarked) [bisabolol]
susceptibility to ciprofloxacin, clindamycin, erythromycin, gentamicin, tetracycline, and vancomycin (Staphylococcus aureus): enhanced the susceptibility of Staphylococcus aureus
intracellular accumulation of ethidium bromide by live cells (Lactobacillus fermentum): promoted the intracellular accumulation

Clc1ccc(COC(Cn2ccnc2)c2ccc(Cl)cc2Cl)cc1 (centres unmarked) [econazole]
MIC (Microsporum gypseum [1]; positive control): 4 to 16 µg/mL

C=CCc1ccc(O)c(OC)c1 [eugenol]
MIC (Microsporum gypseum [1]): 0.01-0.03%
skin lesion scoring (Microsporum gypseum [2]): clinically effective at improving the lesion during the first week of application
histopathologic examination of skin tissues (Microsporum gypseum [2]): lower degree of hyperkeratosis and inflammatory cell infiltration than the positive control

CC(C)=CCCC(C)=CCCC(C)=CCO [farnesol]
sensitization to polymyxin B (Escherichia coli): sensitized Escherichia coli to polymyxin B
intracellular accumulation of ethidium bromide by live cells (Lactobacillus fermentum): promoted the intracellular accumulation

C=CC(C)(O)CCC=C(C)CCC=C(C)C (centres unmarked) [nerolidol, 3,7,11-trimethyl1,6,10-dodecatrien-3-ol]
MIC (Microsporum gypseum [1]): 0.5-2%
hair culture test (Microsporum gypseum [2]): improved the skin lesions infected by M. gypseum
skin lesion scoring (Microsporum gypseum [2]): clinically effective at improving the lesion during the first week of application
histopathologic examination of skin tissues (Microsporum gypseum [2]): lower degree of hyperkeratosis and inflammatory cell infiltration than the positive control
susceptibility to ciprofloxacin, clindamycin, erythromycin, gentamicin, tetracycline, and vancomycin (Staphylococcus aureus): enhanced the susceptibility of Staphylococcus aureus
sensitization to polymyxin B (Escherichia coli): sensitized Escherichia coli to polymyxin B
intracellular accumulation of ethidium bromide by live cells (Lactobacillus fermentum): promoted the intracellular accumulation
